In PubChem BioAssay (NCI):
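96-well plates; 48 h exposure; 5 concentrations. Endpoints by linear interpolation between flanking doses. Not reached: highest tested concentration assigned. At the TGI there is no net growth.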

Tests used:
Assay in all cases: NCI anticancer screen, dose series, 48 h
[1] = tested on: UO-31 renal
[2] = tested on: SK-MEL-28 melanoma
[3] = tested on: KM12 colon
[4] = tested on: MALME-3M melanoma
[5] = tested on: U251 CNS
[6] = tested on: HT29 colon
[7] = tested on: OVCAR-4 ovarian
[8] = tested on: SK-MEL-5 melanoma
[9] = tested on: SNB-19 CNS
[10] = tested on: UACC-257 melanoma
[11] = tested on: SF-268 CNS
[12] = tested on: A549 NSCLC
[13] = tested on: HL-60(TB) leukemia
[14] = tested on: UACC-62 melanoma
[15] = tested on: MOLT-4 leukemia
[16] = tested on: MDA-N
[17] = tested on: SN12C renal
[18] = tested on: PC-3 prostate
[19] = tested on: NCI-H460 lung
[20] = tested on: NCI-H23 lung
[21] = tested on: CCRF-CEM leukemia
[22] = tested on: HOP-62 NSCLC
[23] = tested on: BT-549 breast
[24] = tested on: M14 melanoma
[25] = tested on: NCI/ADR-RES ovarian
[26] = tested on: SNB-75 CNS
[27] = tested on: NCI-H522 lung
[28] = tested on: OVCAR-5 ovarian
[29] = tested on: SF-539 CNS
[30] = tested on: HCT-116 colon
[31] = tested on: T-47D breast
[32] = tested on: DU-145 prostate
[33] = tested on: OVCAR-8 ovarian
[34] = tested on: MCF7 breast
[35] = tested on: HCT-15 colon
[36] = tested on: COLO 205 colon
[37] = tested on: RPMI-8226 leukemia
[38] = tested on: SW-620 colon
[39] = tested on: RXF 393 renal
[40] = tested on: HS 578T breast
[41] = tested on: HOP-92 NSCLC
[42] = tested on: SR leukemia
[43] = tested on: ACHN renal
[44] = tested on: SK-MEL-2 melanoma
[45] = tested on: TK-10 renal
[46] = tested on: 786-0 renal
[47] = tested on: SK-OV-3 ovarian
[48] = tested on: K-562 leukemia
[49] = tested on: LOX IMVI melanoma
[50] = tested on: MDA-MB-231 breast
[51] = tested on: IGROV1 ovarian
[52] = tested on: OVCAR-3 ovarian
[53] = tested on: CAKI-1 renal
[54] = tested on: EKVX NSCLC
[55] = tested on: SF-295 CNS
[56] = tested on: A498 renal
[57] = tested on: MDA-MB-435
[58] = tested on: HCC-2998 colon

Measured: TGI

Cc1ccc(S(=O)(=O)NC(=O)NS(=O)(=O)O)cc1
> 100 µM: [1] | [2] | [3] | [4] | [5] | [6] | [7] | [8] | [9] | [10] | [11] | [12] | [13] | [14] | [15] | [16] | [17] | [18] | [19] | [20] | [21] | [22] | [23] | [24] | [25] | [26] | [27] | [28] | [29] | [30] | [31] | [32] | [33] | [34] | [35] | [36] | [37] | [38] | [39] | [40] | [41] | [42] | [43] | [44] | [45] | [46] | [47] | [48] | [49] | [50] | [51]

C/C=C\C(CC(=O)O)CC(=O)NCCC1CN(S(=O)(=O)C(F)(F)F)c2ccccc21 (centres undefined)
> 100 µM: [1] | [2] | [52] | [53] | [3] | [54] | [4] | [5] | [6] | [7] | [8] | [9] | [10] | [11] | [12] | [55] | [14] | [15] | [56] | [16] | [18] | [19] | [20] | [21] | [22] | [23] | [24] | [25] | [26] | [57] | [27] | [28] | [58] | [30] | [32] | [33] | [34] | [35] | [36] | [37] | [38] | [39] | [40] | [41] | [42] | [43] | [44] | [46] | [47] | [48] | [49] | [50] | [51]
